Patent US5840720A (priority 1995, dated 1998)
“And” between values parts separate entries of the source, which are not always exact repeats. Equal entries are not always repeated. Where two headings read alike, the source gives them in different places. Where no end group is shown, it is not given here.

Assays:
[1] = tested on: calcium channel in the isolated guinea-pig atrium; experiment: CaCl2-induced chronotropic and inotropic effects in isolated guinea-pig atria; details: for inhibition of calcium-induced chronotropic and inotropic effects: pretreatment, increasing CaCl2, right and left atria
Method: Each point represents the mean of six experiments; vertical bars represent the S.E.M.
FIGS. 6A-6B Effect of CAPCNC6 (10 μM) on the positive chronotropic (spontaneously beating right atrium) and inotropic (electrically-driven left atria) effect of increasing Ca^2+ concentrations in guinea pigs. Beating rate and tension were expressed as % of control values. Data represents the mean±S.E.M. (n=7).
D. Effects of compound on the calcium channel in the isolated guinea-pig atrium

[2] = tested on: isolated guinea-pig bronchi; set-up: species or system guinea pig (Hartley)
[3] = tested on: isolated guinea-pig trachea; experiment: Capsaicin-induced contractility of isolated guinea-pig trachea; set-up: species or system guinea pig (Hartley); details: 0.01-30 μM capsaicin, cumulative
Source text: Each point represents mean±S.E.M of six experiments.
A. Antagonist activity of compounds on capsaicin-induced contractility of isolated guinea-pig bronchi and trachea
Adult guinea pigs (Hartley), weighing 350-450 g, were sacrificed by a blow on the head followed by cervical dislocation. The bronchi and trachea were removed from the lungs, cleaned of all parenchyma, and immediately placed in Kreb's solution. As the method reported by M. G. Belvisi et al. (Eur. J. Pharmacol. 215, 341-4, 1992).

[4] = tested on: isolated guinea-pig right and left atria
[5] = tested on: isolated guinea-pig ileum; experiment: Capsaicin, substance P and carbachol-induced contractility of isolated guinea-pig ileum; details: for contraction of ileum smooth muscle: carbachol as control, substance P 0.1 μM; for inhibition of substance P-induced ileum contraction: SP 0.1 μM
Method: FIG. 4 The effects of CAPBZ on response of guinea-pig ileum to capsaicin (10 μM), substance P (SP, 0.1 μM), and carbachol (0.5 μM). […] Thirty minutes following washout, responses to SP, and carbachol were recovered.
C. Antagonist activity of compound on capsaicin and substance Pinduced contractilities of isolated guinea-pig ileum
The abdominal incisions for the guinea pig were made and ilea were isolated and placed in cold (4° C.) Tyrode's solution. 2.5 cm segments of ileum were then trimmed and suspended in an organ bath containing 20 ml low calcium Kreb's solution, aerated with 95% O2 and 5% CO2 at 37° C. As the method reported by M. Takaki et al. (Eur. J. Pharmacol. 174, 5762, 1989).
This effect of capsaicin or substance P was inhibited in the presence of 1.0-100 μM of compound 1 (CAPBZ), concentration-dependently.

[6] = tested on: isolated guinea-pig atria; details: cited from earlier work; for action potential duration: guinea pig atria
neuronal sodium currents = details: cited from earlier work
[7] = tested on: neuronal calcium currents; details: cited from earlier work
airway = details: inhalation; cited from earlier work
[8] = tested on: capsaicin-induced blood pressure changes; assay type: in vivo, Wistar rats
[9] = tested on: capsaicin-induced heart rate changes; assay type: in vivo, Wistar rats
[10] = tested on: capsaicin-induced hypotensive reflex; assay type: in vivo, rats
guinea-pig bronchi = details: cited from earlier work
capsaicin = details: cited from earlier work
[11] = tested on: isolated guinea-pig right and left atrium; experiment: hCGRP-induced beating and tension of isolated guinea-pig atria
[12] = capsaicin 0.01-30 μM cumulative, compound 1 and 3 at 1.0-100 μM, capsazepine 1-10 μM
[13] = A phase, 15 min i.v. infusion 100 μg/kg/min, capsaicin 10 μg/kg i.v., one compartment model
[14] = C phase, 15 min i.v. infusion 100 μg/kg/min, capsaicin 10 μg/kg i.v., one compartment model
[15] = fast phase, 15 min infusion, one compartment model
[16] = slow phase, 15 min infusion, one compartment model
[17] = pretreatment i.t. 1 nmole, capsaicin i.a. 10 μg/kg, mean±S.E.M., n=6, control (None) -19.6 ± 1.9
[18] = 0.1-10 μM compound, 1.0 μM capsaicin, concentration-dependent

Molecule: [Ca+2].[Cl-].[Cl-] [CaCl2, reference compound]
- inotropic effect ([1]; cumulative CaCl2, electrically driven left atrium): positive inotropic effect
- chronotropic effect ([1]; cumulative CaCl2, spontaneously beating right atrium): positive chronotropic effect

Molecule: COc1cc(CNC(=O)CCCC/C=C/C(C)C)ccc1O [Capsaicin]
- contraction of isolated guinea-pig bronchi ([2]; 0.01-30 μM capsaicin, cumulative): concentration-dependent increase in contraction
- contraction of isolated guinea-pig trachea [3]: concentration-dependent increase in contraction
- inotropic and chronotropic effect [4]: positive inotropic and chronotropic response
- inotropic and chronotropic effect ([4]; listed as capsaicin): positive inotropic and chronotropic effect
- contraction of ileum smooth muscle ([5]; capsaicin 10 μM): weaker contractions
- action potential duration [6]: prolong action potential duration
- chronotropic and inotropic effects ([6]; isolated guinea-pig atria): potent positive chronotropic and inotropic effects
- inhibition of neuronal sodium currents (neuronal sodium currents): inhibit neuronal sodium currents
- inhibition of neuronal calcium currents [7]: inhibit neuronal calcium currents
- airway resistance (airway): increase airway resistance and leads to bronchoconstriction

Molecule: Oc1cc2c(cc1O)CN(C(=S)NCCc1ccc(Cl)cc1)CCC2 [Capsazepine, reference compound]
- shift of capsaicin-induced contraction in bronchi [2, 12]: shifted rightward
- efficacy order of antagonist activities, A effect ([8]; A effect): capsazepine>NVABZ>NVABI
- Recovery half-life (t1/2) of capsaicin-induced blood pressure changes, A phase [8, 13]: 2.73 min
- efficacy order of antagonist activities, B effect ([8]; B effect): NVABI>capsazepine>NVABZ
- Recovery half-life (t1/2) of capsaicin-induced blood pressure changes, B phase ([8]; 15 min i.v. infusion 100 μg/kg/min, capsaicin 10 μg/kg i.v., one compartment model): 2.89 min
- efficacy order of antagonist activities, C effect ([8]; C effect): capsazepine>NVABI>NVABZ
- Recovery half-life (t1/2) of capsaicin-induced blood pressure changes, C phase [8, 14]: 3.78 min
- duration order of antagonist activities ([8]; rat, in vivo): NVABZ>NVABI>capsazepine
- recovery of antagonist activity to basal level ([8]; saline infusion after 100 μg/kg/min infusion): recovered to basal level by saline infusion for 30, 45, and 60 minutes gradually
- Recovery half-life (t1/2) of capsaicin-induced heart rate changes, fast phase [9, 15]: 1.36 min
- Recovery half-life (t1/2) of capsaicin-induced heart rate changes, slow phase [9, 16]: 3/52
- depressor reflex response: capsaicin-induced blood pressure changes after pretreatment [10, 17]: 25.8 ± 3.0
- inhibition of contractile response evoked by capsaicin or electrical field stimulation (guinea-pig bronchi): effective in inhibiting the contractile response
- capsaicin antagonism / agonism (capsaicin): competitive capsaicin antagonist

Molecule: CCCCCCCCC(=O)NCc1cc2c(c(OC)c1)OCN(c1ccc(C(=O)OCC)cc1)C2 [Compound 1, N[P-(carboxylic acid ethyl ester)-phenylamine-(4-oxymethylene, 5-methylene)-3-methoxybenzyl] nonanamide]
- inhibitory effect in bronchi compared with trachea ([2]; against capsaicin-induced contraction): more effective in bronchi than in trachea
- shift of capsaicin-induced contraction in bronchi [2, 12]: shifted rightward
- inhibition of capsaicin-induced positive inotropic and chronotropic effect [4, 18]: significantly inhibited
- effect of pretreatment on capsaicin-induced inotropic and chronotropic response ([4]; pretreatment for 30 min, capsaicin 1 μM, FIGS. 3A-3D): decreased the effect of capsaicin
- inhibition of substance P-induced ileum contraction ([5]; compound 1.0-100 μM): inhibited
- inhibition of substance P-induced ileum contraction ([5]; compound 1.0-100 μM, listed as CAPBZ): concentration-dependently reduction of response
- reduction of ileum response to carbachol ([5]; carbachol 0.5 μM, FIG. 4): concentration-dependently reduction of response
- inhibition of capsaicin-induced ileum contraction ([5]; compound 1.0-100 μM, capsaicin 10 μM, concentration-dependent): inhibited
- recovery of responses to SP and carbachol after washout ([5]; thirty minutes following washout): recovered
- inhibition of calcium-induced chronotropic and inotropic effects [1]: could inhibit these calcium effects
- change of CGRP-induced contractilities after CGRP pretreatment ([11]; after pretreatment with CGRP for 30 minutes): could not change CGRP-induced contractilities
- inhibition of hCGRP-induced beating and tension ([11]; right and electrically driven left atrium, FIG. 7 CAPBZ 50 μM): not inhibited

Molecule: CCCCCCCCC(=O)NCc1cc2c(c(OC)c1)OCN(CCCCCC)C2 [Compound 6, N-[hexylamino-(4-oxymethene, 5-methylene)-3-methoxybenzyl] nonanamide]
- inhibition of capsaicin-induced positive inotropic and chronotropic effect [4, 18]: significantly inhibited
- inhibition of calcium-induced chronotropic and inotropic effects [1]: could inhibit these calcium effects

Molecule: C[N+](C)(C)CCOC(N)=O [carbachol, reference compound]
- contraction of ileum smooth muscle ([5]; capsaicin 10 μM): maximum contraction

Molecule: CCCCCCCCC(=O)NCc1ccc(OCC(O)CO)c(OC)c1 (centres unmarked) [glyceryl nonivamide]
- capsaicin antagonism / agonism (capsaicin): selective capsaicin agonist

Molecule: CGRP
- action potential duration [6]: prolong action potential duration

Molecule: N-[(4-hydroxy, 5-diethylaminomethyl)-3-methyoxybenzyl] nonamide [Compound 11]
- effect of pretreatment on capsaicin-induced inotropic and chronotropic response [4]: decreased the effect of capsaicin
- inhibition of capsaicin-induced positive inotropic and chronotropic effect [4]: significantly inhibited
- duration order of antagonist activities ([8]; rat, in vivo): NVABZ>NVABI>capsazepine
- efficacy order of antagonist activities, A effect ([8]; rat, in vivo): capsazepine>NVABZ>NVABI
- efficacy order of antagonist activities, B effect ([8]; rat, in vivo): NVABI>capsazepine>NVABZ
- efficacy order of antagonist activities, C effect ([8]; rat, in vivo): capsazepine>NVABI>NVABZ
- recovery of antagonist activity to basal level ([8]; rat, in vivo): recovered to basal level by saline infusion for 30, 45, and 60 minutes gradually
- Recovery half-life (t1/2) of capsaicin-induced blood pressure changes, A phase ([8]; rat, in vivo, iv): 10.67 min
- Recovery half-life (t1/2) of capsaicin-induced blood pressure changes, C phase ([8]; rat, in vivo, iv): 21.75 min
- Recovery half-life (t1/2) of capsaicin-induced heart rate changes, fast phase ([9]; rat, in vivo): 11.95 min
- Recovery half-life (t1/2) of capsaicin-induced heart rate changes, slow phase ([9]; rat, in vivo): 15.75 min
- depressor reflex response: capsaicin-induced blood pressure changes after pretreatment ([10]; rat, in vivo): 19.2 ± 2.5

Molecule: N[p-ethylketone-phenylamino-(4-oxymethylene, 5-methylene)-3-methoxybenzyl] nonamide [Compound 12]
- inhibition of capsaicin-induced positive inotropic and chronotropic effect [4, 18]: significantly inhibited
- Recovery half-life (t1/2) of capsaicin-induced blood pressure changes, A phase [8, 13]: 4.30 min
- Recovery half-life (t1/2) of capsaicin-induced blood pressure changes, B phase ([8]; 15 min i.v. infusion 100 μg/kg/min, capsaicin 10 μg/kg i.v., one compartment model, listed as NVADA): 9.00 min and 9.01 min
- Recovery half-life (t1/2) of capsaicin-induced blood pressure changes, C phase [8, 14]: 4.49 min
- Recovery half-life (t1/2) of capsaicin-induced heart rate changes, fast phase [9, 15]: 5.33 min
- Recovery half-life (t1/2) of capsaicin-induced heart rate changes, slow phase [9, 16]: 6.00 min
- depressor reflex response: capsaicin-induced blood pressure changes after pretreatment [10, 17]: -10.6 ± 2.5

Molecule: [N-Allylamino-(4-oxymethylene, 5-methylene)-3-methoxybenzyl] nonanamide [Compound 3]
- inhibitory effect in bronchi compared with trachea [2]: more effective in bronchi than in trachea
- shift of capsaicin-induced contraction in bronchi [2]: shifted rightward

Molecule: substance P: SP (substance P) (RPKPQQFFGLM; ends and bridges not checked; UniProt P20366 58-68, looked up) [reference compound]
- contraction of ileum smooth muscle ([5]; capsaicin 10 μM): weaker contractions
